Laboratory results: patent US20110123670A1, “COMESTIBLE PRODUCTS” (priority 2007, published 2011)

System: panel of 10-12 trained assessors
Assay: Determination of salivation effect: Quantitative Descriptive Analysis, Time-Intensity measurement of salivating mouthfeel
Assay type: in vivo
Conditions: at the 90 second interval; FIG. 1
From the text: (§1) Quantitative Descriptive Analysis was used to determine the salivation effect of the invention. Seven samples of confectionary were tasted by a panel of 10-12 trained assessors using the technique of Time-Intensity measurement. The samples differed only in the sweetener component of the product.
(§2) This technique involves the testing of the confectionary sample in a sensory booth. The booth contained a computer equipped with software which allowed the panellist to record the perceived level of the mouth-watering sensation with time. Each assessor measured the perceived intensity of salivating mouthfeel at 1 second intervals over a time period of 90 seconds for each sample. This was achieved by initiating a timer within the software as the sample was placed in the mouth. Over the subsequent 90 second period the position of a marker on a linear slide scale was adjusted according to the perceived level of salivation. The data thus obtained was then processed to produce an analysis curve (intensity of effect versus time). The assessment was repeated multiple times (multiple assessors were used and at least three repetitions per assessor) and the result derived from the mean of the values obtained. The parameters determined were as follows: • Time to maximum salivatory effect, the time taken in seconds for the sample to reach its maximum intensity, a short time being indicative of the desired rapid inception of mouth-watering; • Intensity of salivation at maximum, the highest point in the curve as recorded by each assessor, a high intensity being generally preferred; • Area under the analysis curve, the larger this area the greater the total salivation over the 90 second test period; and • Increase angle, the angle in degrees of ascent from the first recorded value to the maximum intensity, a greater increase angle on the curve illustrates which samples have the greatest increase in salivation per unit time.
A series of tests were carried out to determine the mouth-watering effect and cooling effect derived from each of a range of sweeteners. The sweeteners tested were sugar (sucrose), erythritol, isomaltulose, trehalose, galactose, dextrose monohydrate and xylitol. Conventional methods were used to prepare this candy chew.

SMILES	mouth-watering effect relative to that observed through the use of sugar
O=C[C@H](O)[C@@H](O)[C@@H](O)[C@H](O)CO [Galactose, galactose]	approximately 2.5 times

Same assay, conditions: salivating effect; chewy confectionary with 46.0 wt % test sweetener; 90 second test period; mean of at least 13 repetitions

SMILES	Increase Angle (°)	Time to Maximum Salivatory Effect [s]
O.O=C[C@H](O)[C@@H](O)[C@H](O)[C@H](O)CO [Dextrose Monohydrate, dextrose monohydrate]	38	76.7
OC[C@@H](O)[C@@H](O)CO [Erythritol, erythritol]	51.8	64.8
O=C[C@H](O)[C@@H](O)[C@@H](O)[C@H](O)CO [Galactose, galactose]	51.5	62
OC[C@H]1O[C@H](OC[C@H]2OC(O)(CO)[C@@H](O)[C@@H]2O)[C@H](O)[C@@H](O)[C@@H]1O (some centres unmarked) [Isomaltulose, isomaltulose]	31.1	65.7
OC[C@H]1O[C@@](CO)(O[C@H]2O[C@H](CO)[C@@H](O)[C@H](O)[C@H]2O)[C@@H](O)[C@@H]1O [Sugar, sucrose]	35.1	58.9
OC[C@H]1O[C@H](O[C@H]2O[C@H](CO)[C@@H](O)[C@H](O)[C@H]2O)[C@H](O)[C@@H](O)[C@@H]1O [Trehalose, trehalose]	35.3	66.5
OC[C@@H](O)[C@H](O)[C@@H](O)CO [Xylitol, xylitol]	39.3	70.3

Same assay, conditions: salivating effect; relative values; chewy confectionary with 46.0 wt % test sweetener; 90 second test period; mean of at least 13 repetitions

SMILES	Area under Curve	Intensity at Maximum
O.O=C[C@H](O)[C@@H](O)[C@H](O)[C@H](O)CO [Dextrose Monohydrate, dextrose monohydrate]	2306	52.1
OC[C@@H](O)[C@@H](O)CO [Erythritol, erythritol]	4079	73
O=C[C@H](O)[C@@H](O)[C@@H](O)[C@H](O)CO [Galactose, galactose]	3561	64.9
OC[C@H]1O[C@H](OC[C@H]2OC(O)(CO)[C@@H](O)[C@@H]2O)[C@H](O)[C@@H](O)[C@@H]1O (some centres unmarked) [Isomaltulose, isomaltulose]	1898	34.3
OC[C@H]1O[C@@](CO)(O[C@H]2O[C@H](CO)[C@@H](O)[C@H](O)[C@H]2O)[C@@H](O)[C@@H]1O [Sugar, sucrose]	1673	28.6
OC[C@H]1O[C@H](O[C@H]2O[C@H](CO)[C@@H](O)[C@H](O)[C@H]2O)[C@H](O)[C@@H](O)[C@@H]1O [Trehalose, trehalose]	2253	43
OC[C@@H](O)[C@H](O)[C@@H](O)CO [Xylitol, xylitol]	2874	53.1

System: not listed separately
Assay: Determination of cooling effect: drop in temperature on dissolving sweetener powder in distilled water at 37° C.
Assay type: physicochemical
Conditions: cooling effect of sweeteners, tested in duplicate, mean
Description: 150 g of sweetener powder was dissolved in 50 ml of distilled water at 37° C. with stirring. The drop in temperature was measured after 20 seconds than a further 50 ml of distilled water added and the temperature measured after a further 20 seconds. This step was repeated […] to a total volume of water of 200 ml. All samples were tested in duplicate and the result derived from the mean of the values obtained. The repeated addition of water was intended to mimic the conditions in the mouth, where more saliva would be produced as chewing of the comestible progresses. As a result, the cooling effect is indicative of the cooling effect that would be observed in the mouth upon dissolution of the sweetener during consumption.

Magnitude of reduction in temperature at T = 90 seconds (° C.) [°C]	SMILES
11.0	O=C[C@H](O)[C@@H](O)[C@@H](O)[C@H](O)CO [Galactose, galactose]
16.5	OC[C@@H](O)[C@@H](O[C@H]1O[C@H](CO)[C@@H](O)[C@H](O)[C@H]1O)[C@H](O)[C@@H](O)CO [Maltitol]
13.0	OC[C@@H](O)[C@@H](O)[C@H](O)[C@H](O)CO [Mannitol]
13.5	OC[C@H]1O[C@@](CO)(O[C@H]2O[C@H](CO)[C@@H](O)[C@H](O)[C@H]2O)[C@@H](O)[C@@H]1O [Sugar, sucrose]
26.0	OC[C@@H](O)[C@H](O)[C@@H](O)CO [Xylitol, xylitol]

SMILES	Magnitude of reduction in temperature at T = 90 seconds (° C.) [°C]
O.O=C[C@H](O)[C@@H](O)[C@H](O)[C@H](O)CO [Dextrose Monohydrate, dextrose monohydrate]	14.5

System: panel of 10-12 trained assessors
Assay: Quantitative Descriptive Analysis of cooling effect (temperature decrease in the nose and mouth)
Assay type: in vivo
Conditions: cooling effect; mean of at least 10 repetitions
From the text: as §1, §2
In addition, the Quantitative Descriptive Analysis as described above with regard to the evaluation of salivation was applied to determine the time to maximum cooling effect, the intensity of cooling at maximum, the area under the analysis curve and the increase angle. Cooling was assessed in terms of the temperature decrease in the nose and mouth, at the time of drawing air into the mouth. As with the determination of salivation using this technique, for effective cooling, a larger value is desirable for all parameters except the time to maximum cooling.

SMILES	Increase Angle (°)
O.O=C[C@H](O)[C@@H](O)[C@H](O)[C@H](O)CO [Dextrose Monohydrate, dextrose monohydrate]	36.5
OC[C@@H](O)[C@@H](O)CO [Erythritol, erythritol]	81.5
O=C[C@H](O)[C@@H](O)[C@@H](O)[C@H](O)CO [Galactose, galactose]	39.3
OC[C@@H](O)[C@H](O)[C@@H](O)CO [Xylitol, xylitol]	46

Same assay, conditions: cooling effect; relative values; mean of at least 10 repetitions

SMILES	Area under Curve	Intensity at Maximum
O.O=C[C@H](O)[C@@H](O)[C@H](O)[C@H](O)CO [Dextrose Monohydrate, dextrose monohydrate]	663	24
OC[C@@H](O)[C@@H](O)CO [Erythritol, erythritol]	3431	59.9
O=C[C@H](O)[C@@H](O)[C@@H](O)[C@H](O)CO [Galactose, galactose]	725	14.6
OC[C@@H](O)[C@H](O)[C@@H](O)CO [Xylitol, xylitol]	2457	44.7

Same assay, conditions: table of cooling effect parameters; mean of at least 10 repetitions

SMILES	Time to maximum cooling effect [s]
O.O=C[C@H](O)[C@@H](O)[C@H](O)[C@H](O)CO [Dextrose Monohydrate, dextrose monohydrate]	81.9
OC[C@@H](O)[C@@H](O)CO [Erythritol, erythritol]	63.5
O=C[C@H](O)[C@@H](O)[C@@H](O)[C@H](O)CO [Galactose, galactose]	57.1
OC[C@@H](O)[C@H](O)[C@@H](O)CO [Xylitol, xylitol]	64.5

System: not listed separately
Assay: Studies by the applicant on galactose in sports drinks
Assay type: in vivo
Conditions: compared with glucose

SMILES	incidence of hypoglycaemia	overall sporting performance
O=C[C@H](O)[C@@H](O)[C@@H](O)[C@H](O)CO [Galactose, galactose]	lower	increased
